“And” between values parts separate entries of the source, which are not always exact repeats. Equal entries are not always repeated. Toxic doses and inconclusive results are not listed. The calls were made as follows: active = survival T/C of 150% or more; inactive = T/C below 125% in these data.
System: CD2F1 mice, L1210 leukemia ip, survival T/C
Assay: NCI In Vivo Anticancer Drug Screen. Data for tumor model L1210 Leukemia (intraperitoneal) in CD2F1 (CDF1) mice
Conditions: higher = longer survival
In short: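 Ratio T/C, where T is the treated-group value and C the vehicle-dosed control value, from mice implanted with a transplantable tumor.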

[1] = endpoint: mean survival time, dose: 100.0 mg/kg/injection, schedule: Q01DX009 (ip), vehicle: saline with Tween-80
[2] = endpoint: mean survival time, dose: 100.0 mg/kg/injection, schedule: Q01DX001 (ip), vehicle: saline
[3] = endpoint: mean survival time, dose: 200.0 mg/kg/injection, schedule: Q01DX001 (ip), vehicle: saline
[4] = endpoint: mean survival time, dose: 400.0 mg/kg/injection, schedule: Q01DX001 (ip), vehicle: saline
[5] = endpoint: mean survival time, dose: 25.0 mg/kg/injection, schedule: Q01DX009 (ip), vehicle: saline
[6] = endpoint: mean survival time, dose: 50.0 mg/kg/injection, schedule: Q01DX009 (ip), vehicle: saline
[7] = endpoint: mean survival time, dose: 100.0 mg/kg/injection, schedule: Q01DX009 (ip), vehicle: saline
[8] = endpoint: mean survival time, dose: 100.0 mg/kg/injection, schedule: Q04DX002 (ip), vehicle: saline with Tween-80
[9] = endpoint: mean survival time, dose: 200.0 mg/kg/injection, schedule: Q04DX002 (ip), vehicle: saline with Tween-80
[10] = endpoint: mean survival time, dose: 400.0 mg/kg/injection, schedule: Q04DX002 (ip), vehicle: saline with Tween-80

Measured: T/C

CC(Oc1ccc(Br)cc1Br)C(=O)O (stereo not drawn)
inactive: [1] 97 % of control | endpoint: mean survival time, dose: 200.0 mg/kg/injection, schedule: Q01DX009 (ip), vehicle: saline with Tween-80 94 % of control | endpoint: mean survival time, dose: 400.0 mg/kg/injection, schedule: Q01DX009 (ip), vehicle: saline with Tween-80 94 % of control

Cc1cn(C2CC(O)C(CO)O2)c(=O)nc1NCc1ccco1 (stereo not drawn)
inactive: endpoint: median survival time, dose: 12.5 mg/kg/injection, schedule: Q01DX005 (ip), vehicle: water 103 % of control | endpoint: median survival time, dose: 25.0 mg/kg/injection, schedule: Q01DX005 (ip), vehicle: water 103 % of control | endpoint: median survival time, dose: 50.0 mg/kg/injection, schedule: Q01DX005 (ip), vehicle: water 104 % of control | endpoint: median survival time, dose: 100.0 mg/kg/injection, schedule: Q01DX005 (ip), vehicle: water 105 % of control | endpoint: median survival time, dose: 200.0 mg/kg/injection, schedule: Q01DX005 (ip), vehicle: water 102 % of control

CN=C(N)N(C)C
inactive: [2] 101 % of control | [3] 101 % of control | [4] 95 % of control

ONc1ccccn1
inactive: [5] 101 % of control | [6] 96 % of control | endpoint: mean survival time, dose: 50.0 mg/kg/injection, schedule: Q04DX003 (ip), vehicle: saline 98 % of control | [7] 95 % of control | endpoint: mean survival time, dose: 100.0 mg/kg/injection, schedule: Q04DX003 (ip), vehicle: saline 98 % of control

CC1CC(C)(C)N=C(CCCCCCl)O1 (stereo not drawn)
inactive: endpoint: mean survival time, dose: 50.0 mg/kg/injection, schedule: Q04DX002 (ip), vehicle: saline with Tween-80 101 % of control | endpoint: mean survival time, dose: 100.0 mg/kg/injection, schedule: Q01DX001 (ip), vehicle: saline with Tween-80 103 % of control | [8] 108 % of control | endpoint: mean survival time, dose: 200.0 mg/kg/injection, schedule: Q01DX001 (ip), vehicle: saline with Tween-80 105 % of control | [9] 112 % of control

Cc1ccc(S(=O)(=O)CN2CCC(=O)c3ccccc32)cc1
inactive: endpoint: mean survival time, dose: 75.0 mg/kg/injection, schedule: Q04DX003 (ip), vehicle: saline 95 % of control | endpoint: mean survival time, dose: 150.0 mg/kg/injection, schedule: Q04DX003 (ip), vehicle: saline 91 % of control | endpoint: mean survival time, dose: 300.0 mg/kg/injection, schedule: Q04DX003 (ip), vehicle: saline 97 % of control

CCN(CC)CCN1CC2CCCCC2C1 (stereo not drawn)
inactive: endpoint: mean survival time, dose: 25.0 mg/kg/injection, schedule: Q01DX009 (ip), vehicle: saline with Tween-80 100 % of control | endpoint: mean survival time, dose: 50.0 mg/kg/injection, schedule: Q01DX009 (ip), vehicle: saline with Tween-80 100 % of control | [1] 98 % of control and 102 % of control

Cc1cc(C)c(S(=O)O)c(C)c1
inactive: [2] 103 % of control | [3] 103 % of control | [4] 103 % of control

Cc1ccc(S(=O)(=O)Nc2ccccc2)c(C(O)(c2ccccc2)c2ccccc2)c1
inactive: endpoint: mean survival time, dose: 100.0 mg/kg/injection, schedule: Q04DX003 (ip), vehicle: saline with Tween-80 95 % of control | endpoint: mean survival time, dose: 200.0 mg/kg/injection, schedule: Q04DX003 (ip), vehicle: saline with Tween-80 106 % of control | endpoint: mean survival time, dose: 400.0 mg/kg/injection, schedule: Q04DX003 (ip), vehicle: saline with Tween-80 95 % of control

CCCCCC(O)C(C)C (stereo not drawn)
inactive: endpoint: mean survival time, dose: 75.0 mg/kg/injection, schedule: Q01DX001 (ip), vehicle: saline 98 % of control | endpoint: mean survival time, dose: 150.0 mg/kg/injection, schedule: Q01DX001 (ip), vehicle: saline 91 % of control

CC(N)C(=O)NC(C(=O)O)C(C)O (stereo not drawn)
inactive: [5] 102 % of control | [6] 103 % of control | [7] 105 % of control | endpoint: mean survival time, dose: 200.0 mg/kg/injection, schedule: Q01DX009 (ip), vehicle: saline 98 % of control | endpoint: mean survival time, dose: 400.0 mg/kg/injection, schedule: Q01DX009 (ip), vehicle: saline 98 % of control

Cc1cc(=O)c(C(=O)NC/C(C#N)=C\c2ccccc2)c(C)[nH]1
inactive: [8] 93 % of control | [10] 100 % of control

CN(C)C(=O)Nc1cc(Cl)ccc1Cl
inactive: [8] 97 % of control | [9] 108 % of control | [10] 120 % of control

CN(N=O)P(=O)(Nc1ccccc1)Nc1ccccc1
inactive: endpoint: mean survival time, dose: 25.0 mg/kg/injection, schedule: Q04DX003 (ip), vehicle: other 101 % of control | endpoint: mean survival time, dose: 50.0 mg/kg/injection, schedule: Q04DX003 (ip), vehicle: other 98 % of control | endpoint: mean survival time, dose: 100.0 mg/kg/injection, schedule: Q04DX003 (ip), vehicle: other 103 % of control
